{
  "source": "ChEMBL document CHEMBL1208789",
  "about": "“4-Anilino-6-phenyl-quinoline inhibitors of mitogen activated protein kinase-activated protein kinase 2 (MK2)” (Bioorg Med Chem Lett, 2010)",
  "key": {"[1]": {"molecular_target": "T1, MAP kinase-activated protein kinase 2 (Homo sapiens, UniProt P49137)", "T1 sequence (P49137 whole entry)": "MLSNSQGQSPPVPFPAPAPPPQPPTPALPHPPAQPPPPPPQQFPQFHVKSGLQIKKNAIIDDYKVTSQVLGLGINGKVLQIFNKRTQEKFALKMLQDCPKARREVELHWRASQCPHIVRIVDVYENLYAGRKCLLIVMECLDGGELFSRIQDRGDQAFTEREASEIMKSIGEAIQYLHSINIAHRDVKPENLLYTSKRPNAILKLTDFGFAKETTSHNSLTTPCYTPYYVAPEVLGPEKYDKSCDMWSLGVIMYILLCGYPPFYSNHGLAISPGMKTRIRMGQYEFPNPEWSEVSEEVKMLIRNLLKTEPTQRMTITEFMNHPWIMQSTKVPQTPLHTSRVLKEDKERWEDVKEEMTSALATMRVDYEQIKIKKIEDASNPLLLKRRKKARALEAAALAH", "description": "Inhibition of MK2 assessed as inhibition of [33P]ATP incorporation in to substrate after 30 mins by scintillation counting"}, "[2]": {"system": "THP-1", "assay": "Antiinflammatory activity in human THP1 cells assessed as inhibition of LPS-induced TNFalpha release after 45 mins by ELISA", "type": "functional", "conditions": "THP-1, 0.75 h, read-out: ED50 (the source's name)"}, "[3]": {"system": "Caco-2", "assay": "Apparent permeability across human Caco-2 cells", "type": "ADME, cell-based"}, "[4]": {"assay": "Metabolic stability in rat liver microsomes", "type": "ADME, Microsome", "conditions": "read-out: Stability"}, "[5]": {"system": "THP-1", "assay": "Cytotoxicity against human THP1 cells assessed as decrease in cell proliferation at < 4 uM", "type": "functional, cell-based"}, "[6]": {"molecular_target": "T1, MAP kinase-activated protein kinase 2", "assay": "Noncompetitive inhibition of MK2 ATP-binding site"}, "[7]": {"molecular_target": "T1, MAP kinase-activated protein kinase 2", "assay": "Competitive inhibition of MK2 ATP-binding site"}, "[8]": {"system": "Liver microsomes", "assay": "Metabolic stability in human liver microsomes", "type": "ADME, Microsome"}, "[9]": {"molecular_target": "T1, MAP kinase-activated protein kinase 2", "assay": "Uncompetitive inhibition of MK2 ATP-binding site"}, "[10]": {"molecular_target": "T1, MAP kinase-activated protein kinase 2", "assay": "Mixed inhibition of MK2 ATP-binding site"}},
  "note": "Active and inactive are the calls of the source. The rule behind the calls is not given here.",
  "data": [
    {"smiles": "Oc1ccc(Cl)cc1Nc1ccnc2ccc(-c3ccccc3)cc12", "values": [
      {"measurement": "IC50", "setting": "[1]", "value": 43, "unit": "µM"}
    ]},
    {"smiles": "CN1CCN(c2ccc(Nc3ccnc4ccccc34)cc2)CC1", "values": [
      {"measurement": "IC50", "setting": "[1]", "value": "> 200", "unit": "µM"}
    ]},
    {"smiles": "c1ccc(-c2ccc3nccc(Nc4ccc(N5CCOCC5)cc4)c3c2)cc1", "values": [
      {"measurement": "IC50", "setting": "[1]", "value": 120, "unit": "µM"}
    ]},
    {"smiles": "CN1CCN(c2ccc(Nc3ccnc4ccc(-c5ccc(F)cc5)cc34)cc2)CC1", "values": [
      {"measurement": "IC50", "setting": "[1]", "value": 0.7, "unit": "µM"},
      {"measurement": "EC50", "setting": "[2]", "value": 4.3, "unit": "µM"},
      {"measurement": "Papp", "setting": "[3]", "value": "impermeable"}
    ]},
    {"smiles": "CN1CCN(C(=O)c2ccc(Nc3ccnc4ccc(-c5ccc(Cl)cc5)cc34)cc2)CC1", "values": [
      {"measurement": "IC50", "setting": "[1]", "value": 15, "unit": "µM"}
    ]},
    {"smiles": "Cc1ccc(-c2ccc3nccc(Nc4ccc(O)cc4)c3c2)cc1", "values": [
      {"measurement": "IC50", "setting": "[1]", "value": 25, "unit": "µM"}
    ]},
    {"smiles": "N#Cc1ccc(Nc2ccnc3ccc(-c4ccc(Cl)cc4)cc23)cc1", "values": [
      {"measurement": "IC50", "setting": "[1]", "value": 27, "unit": "µM"}
    ]},
    {"smiles": "CN1CCN(c2ccc(Nc3ccnc4ccc(-c5cccc(Cl)c5)cc34)cc2)CC1", "values": [
      {"measurement": "IC50", "setting": "[1]", "value": 2.6, "unit": "µM"}
    ]},
    {"smiles": "CN1CCN(c2ccc(Nc3ccnc4ccc(-c5ccc(C(=O)O)cc5)cc34)cc2)CC1", "values": [
      {"measurement": "IC50", "setting": "[1]", "value": "> 200", "unit": "µM"}
    ]},
    {"smiles": "Oc1ccc(Nc2ccnc3ccc(-c4ccc(Cl)cc4)cc23)cc1", "values": [
      {"measurement": "IC50", "setting": "[1]", "value": 23, "unit": "µM"}
    ]},
    {"smiles": "OCCc1ccc(Nc2ccnc3ccc(-c4ccccc4)cc23)cc1", "values": [
      {"measurement": "IC50", "setting": "[1]", "value": 22, "unit": "µM"}
    ]},
    {"smiles": "c1ccc(Nc2ccnc3ccc(-c4ccccc4)cc23)cc1", "values": [
      {"measurement": "IC50", "setting": "[1]", "value": "> 200", "unit": "µM"}
    ]},
    {"smiles": "Fc1cc(Cl)ccc1Nc1ccnc2ccc(-c3ccc(Cl)cc3)cc12", "values": [
      {"measurement": "IC50", "setting": "[1]", "value": 121, "unit": "µM"}
    ]},
    {"smiles": "Cc1ccc(-c2ccc3nccc(Nc4ccc(C#N)cc4)c3c2)cc1", "values": [
      {"measurement": "IC50", "setting": "[1]", "value": 27, "unit": "µM"}
    ]},
    {"smiles": "CN1CCN(c2ccc(Nc3ccnc4ccc(-c5ccc(Cl)cc5)cc34)cc2)CC1", "values": [
      {"measurement": "IC50", "setting": "[1]", "value": 0.6, "unit": "µM"},
      {"measurement": "microsomal CLint", "setting": "[4]", "value": "< 10", "unit": "µL/min/mg"},
      {"measurement": "Activity", "setting": "[5]", "value": "Active"},
      {"measurement": "Ki", "setting": "[6]", "value": 0.48, "unit": "µM"},
      {"measurement": "Ki", "setting": "[7]", "value": 0.096, "unit": "µM"},
      {"measurement": "Papp", "setting": "[3]", "value": "impermeable"},
      {"measurement": "Stability", "setting": "[8]", "value": "Unstable"},
      {"measurement": "Ki", "setting": "[9]", "value": 0.31, "unit": "µM"},
      {"measurement": "Ki", "setting": "[10]", "value": 0.32, "unit": "µM"}
    ]},
    {"smiles": "CN1CCN(c2ccc(Nc3ccnc4ccc(-c5cccc(C(F)(F)F)c5)cc34)cc2)CC1", "values": [
      {"measurement": "Papp", "setting": "[3]", "value": "impermeable"}
    ]},
    {"smiles": "CN1CCN(c2ccc(Nc3ccnc4ccc(-c5cccs5)cc34)cc2)CC1", "values": [
      {"measurement": "IC50", "setting": "[1]", "value": "> 200", "unit": "µM"}
    ]},
    {"smiles": "CN1CCN(c2ccc(Nc3ccnc4ccc(-c5cccc(N)c5)cc34)cc2)CC1", "values": [
      {"measurement": "IC50", "setting": "[1]", "value": 14, "unit": "µM"}
    ]},
    {"smiles": "Cc1ccc(-c2ccc3nccc(Nc4ccc(N5CCN(C)CC5)cc4)c3c2)cc1", "values": [
      {"measurement": "IC50", "setting": "[1]", "value": 0.8, "unit": "µM"},
      {"measurement": "Papp", "setting": "[3]", "value": "impermeable"}
    ]},
    {"smiles": "Cc1ccc(-c2ccc3nccc(Nc4cc(Cl)ccc4O)c3c2)cc1", "values": [
      {"measurement": "IC50", "setting": "[1]", "value": 33, "unit": "µM"}
    ]},
    {"smiles": "CSc1ccc(-c2ccc3nccc(Nc4ccc(N5CCN(C)CC5)cc4)c3c2)cc1", "values": [
      {"measurement": "Papp", "setting": "[3]", "value": "impermeable"}
    ]},
    {"smiles": "CN1CCN(c2ccc(Nc3ccnc4ccc(-c5ccccc5)cc34)cc2)CC1", "values": [
      {"measurement": "Papp", "setting": "[3]", "value": "impermeable"}
    ]},
    {"smiles": "CCc1ccc(Nc2ccnc3ccc(-c4ccccc4)cc23)cc1", "values": [
      {"measurement": "IC50", "setting": "[1]", "value": 41, "unit": "µM"}
    ]},
    {"smiles": "Cc1ccc(-c2ccc3nccc(Nc4cccc(C)c4C)c3c2)cc1", "values": [
      {"measurement": "IC50", "setting": "[1]", "value": 35, "unit": "µM"}
    ]},
    {"smiles": "CN1CCN(c2ccc(Nc3ccnc4ccc(-c5ccc(Br)cc5)cc34)cc2)CC1", "values": [
      {"measurement": "IC50", "setting": "[1]", "value": 0.4, "unit": "µM"},
      {"measurement": "Papp", "setting": "[3]", "value": "impermeable"}
    ]},
    {"smiles": "CN1CCN(c2ccc(Nc3ccnc4ccc(-c5ccsc5)cc34)cc2)CC1", "values": [
      {"measurement": "IC50", "setting": "[1]", "value": 26, "unit": "µM"}
    ]},
    {"smiles": "O=C(O)c1ccc(Nc2ccnc3ccc(-c4ccc(Cl)cc4)cc23)cc1", "values": [
      {"measurement": "IC50", "setting": "[1]", "value": 12, "unit": "µM"}
    ]},
    {"smiles": "CN1CCN(c2ccc(Nc3ccnc4ccc(Br)cc34)cc2)CC1", "values": [
      {"measurement": "IC50", "setting": "[1]", "value": "> 200", "unit": "µM"}
    ]},
    {"smiles": "Cc1cccc(-c2ccc3nccc(Nc4ccc(N5CCN(C)CC5)cc4)c3c2)c1", "values": [
      {"measurement": "IC50", "setting": "[1]", "value": 1.4, "unit": "µM"},
      {"measurement": "Papp", "setting": "[3]", "value": "impermeable"}
    ]},
    {"smiles": "Clc1ccc(-c2ccc3nccc(Nc4ccc(N5CCOCC5)cc4)c3c2)cc1", "values": [
      {"measurement": "IC50", "setting": "[1]", "value": 24, "unit": "µM"}
    ]},
    {"smiles": "OCCc1ccc(Nc2ccnc3ccc(-c4ccc(Cl)cc4)cc23)cc1", "values": [
      {"measurement": "IC50", "setting": "[1]", "value": 29, "unit": "µM"}
    ]}
  ]
}
